Assay results reported in US8063048B2, “Acetylenyl-pyrazolo-pyrimidine derivatives” (Hoffmann-La Roche Inc., priority 2005, dated 2011).

Key:
mGlu2 receptor = target: T1, mGlu2 receptor (Rattus norvegicus, UniProt P31421); assay: [3H]-LY354740 binding on mGlu2 transfected CHO cell membranes; conditions: inhibition of 10 nM [3H]-LY354740 binding, membranes of CHO cells transfected with rat mGlu2, room temperature, 1 hour
T1 construct: expressed in transfected cells; membranes prepared
Description: [^3H]-LY354740 Binding on mGlu2 Transfected CHO Cell Membranes. Transfection and Cell Culture
cDNA encoding the rat mGlu2 receptor protein in pBluescript II was subcloned into the eukaryotic expression vector pcDNA I-amp from Invitrogen Ltd (Paisley, UK). This vector construct (pcD1mGR^2) was co-transfected with a psvNeo plasmid encoding the gene for neomycin resistance, into CHO cells by a modified calcium phosphate method described by Chen & Okayama (1988). The cells were maintained in Dulbecco's Modified Eagle medium with reduced L-glutamine (2 mM final concentration) and 10% dialyzed fetal calf serum from Gibco-Invitrogen (Carlsbad, Calif., USA). Selection was made in the presence of G-418 (1000 ug/mL final) and MCPG[…]. Clones were identified by reverse transcription of 5 μg total RNA, followed by PCR using mGlu2 receptor specific primers 5′-[…]-3′ and 5′-[…]-3′ in 60 mM Tris HCl (pH 10), 15 mM (NH4)2SO4, 2 mM MgCl2, 25 units/mLTaq Polymerase with 30 cycles annealing at 60° C. for 1 min., extention at 72° C. for 30 s, and 1 min. 95° C. denaturation.
Cells, cultured as above, were harvested and washed three times with cold PBS and frozen at −80° C. The pellet was resuspended in cold 20 mM HEPES-NaOH buffer containing 10 mM EDTA (pH 7.4) and homogenized with a polytron (Kinematica, AG, Littau, Switzerland) for 10 s at 10 000 rpm. After centrifugation for 30 min. at 4° C., the pellet was washed once with the same buffer, and once with cold 20 mM HEPES-NaOH buffer containing 0.1 mM EDTA, (pH 7.4). Protein content was measured using the micro BCA method from Pierce-Perbio (Rockford, Ill., USA) using bovine serum albumin as standard.
After thawing, the membranes were resuspended in cold 50 mM Tris-HCl buffer containing 2 mM MgCl2 (pH 7) (binding buffer). The final concentration of the membranes in the assays was 25 μg protein/ml. Inhibition experiments were performed with membranes incubated with 10 nM [^3H]-LY354740 at room temperature, for 1 hour, in presence of various concentrations of the compound to be tested. Following the incubations, membranes were filtered onto Whatmann GF/B glass fiber filters and washed 5 times with cold binding buffer. Non specific binding was measured in the presence of 10 μM DCG IV. After transfer of the filters into plastic vials containing 10 mL of Ultima-gold scintillation fluid from Perkin-Elmer (Boston, Mass., USA), the radioactivity was measured by liquid scintillation in a Tri-Carb 2500 TR counter (Packard, Zürich, Switzerland).
The inhibition curves were fitted with a four parameter logistic equation giving IC50 values, and Hill coefficients.

T1 sequence (P31421 19-872): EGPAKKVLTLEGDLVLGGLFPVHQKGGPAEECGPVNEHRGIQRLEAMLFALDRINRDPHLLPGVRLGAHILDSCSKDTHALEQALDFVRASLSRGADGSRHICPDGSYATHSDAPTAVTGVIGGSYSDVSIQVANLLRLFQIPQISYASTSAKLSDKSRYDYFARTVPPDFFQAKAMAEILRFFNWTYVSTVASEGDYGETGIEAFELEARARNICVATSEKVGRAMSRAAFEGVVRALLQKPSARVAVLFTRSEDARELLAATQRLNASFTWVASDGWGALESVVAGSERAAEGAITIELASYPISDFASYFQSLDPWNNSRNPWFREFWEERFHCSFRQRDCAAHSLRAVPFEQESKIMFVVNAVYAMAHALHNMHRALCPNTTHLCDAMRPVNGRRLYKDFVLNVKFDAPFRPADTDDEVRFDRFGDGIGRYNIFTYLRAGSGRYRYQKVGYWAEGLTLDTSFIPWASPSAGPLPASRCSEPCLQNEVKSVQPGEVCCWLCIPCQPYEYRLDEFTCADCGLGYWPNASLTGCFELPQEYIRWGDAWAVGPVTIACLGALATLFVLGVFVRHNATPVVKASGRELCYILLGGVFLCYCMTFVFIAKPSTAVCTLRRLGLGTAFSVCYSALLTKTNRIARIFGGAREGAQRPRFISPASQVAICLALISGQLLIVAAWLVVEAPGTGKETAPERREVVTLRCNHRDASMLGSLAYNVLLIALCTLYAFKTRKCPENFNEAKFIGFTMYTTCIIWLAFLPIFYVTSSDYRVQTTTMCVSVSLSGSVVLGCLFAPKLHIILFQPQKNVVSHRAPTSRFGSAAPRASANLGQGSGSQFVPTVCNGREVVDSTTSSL

Structure (SMILES)	Ki (mGlu2 receptor)	melting point
NS(=O)(=O)c1ccc(C#Cc2cnn3c(C4CC4)cc(-c4ccc(Cl)c(Cl)c4)nc23)s1 [Example 86, 5-[7-Cyclopropyl-5-(3,4-dichloro-phenyl)-pyrazolo[1,5-a]pyrimidin-3-ylethynyl]-thiophene-2-sulfonic acid amide]	3 nM	213 to 214 °C
CC(CO)(CO)NS(=O)(=O)c1cncc(C#Cc2cnn3c(C(F)(F)F)cc(-c4ccc(Cl)c(Cl)c4)nc23)c1 [Example 91, 5-[5-(3,4-Dichloro-phenyl)-7-trifluoromethyl-pyrazolo[1,5-a]pyrimidin-3-ylethynyl]-pyridine-3-sulfonic acid (2-hydroxy-1-hydroxymethyl-1-methyl-ethyl)-amide]	4 nM	
NS(=O)(=O)c1cc(C#Cc2cnc3c(C(F)(F)F)cc(-c4ccc(C(F)(F)F)cc4)cn23)c(F)cc1F [Example 180, 2,4-Difluoro-5-[8-trifluoromethyl-6-(4-trifluoromethyl-phenyl)-imidazo[1,2-a]pyridin-3-ylethynyl]-benzenesulfonamide]	9 nM	306 to 307 °C
NS(=O)(=O)c1cccc(C#Cc2cnn3c(C(F)(F)F)cc(-c4ccc(C(F)(F)F)cc4)nc23)c1 [Example 1, 3-[7-Trifluoromethyl-5-(4-trifluoromethyl-phenyl)-pyrazolo[1,5-a]pyrimidin-3-ylethynyl]-benzenesulfonamide]	2 nM	243 °C
CN1CCN(S(=O)(=O)c2ccc(C#Cc3cnn4c(C(F)(F)F)cc(-c5ccc(C(F)(F)F)cc5)nc34)s2)CC1 [Example 157, 3-[5-(4-Methyl-piperazine-1-sulfonyl)-thiophen-2-ylethynyl]-7-trifluoromethyl-5-(4-trifluoromethyl-phenyl)-pyrazolo[1,5-a]pyrimidine]	8 nM	250 °C
NS(=O)(=O)c1ccc(C#Cc2ncn3c(C(F)(F)F)cc(-c4ccc(C(F)(F)F)cc4)nc23)s1 [Example 179, 5-[4-Trifluoromethyl-2-(4-trifluoromethyl-phenyl)-imidazo[1,5-a]pyrimidin-8-ylethynyl]-thiophene-2-sulfonic acid amide]	1 nM	255 °C
NS(=O)(=O)c1ccc(C#Cc2ncn3c(C(F)(F)F)cc(-c4ccc(C(F)(F)F)cc4)nc23)cc1 [Example 178, 4-[4-Trifluoromethyl-2-(4-trifluoromethyl-phenyl)-imidazo[1,5-a]pyrimidin-8-ylethynyl]-benzenesulfonamide]	8 nM	290 °C
NS(=O)(=O)c1cccc(C#Cc2cnn3c(C4CC4)cc(-c4ccc(Cl)c(Cl)c4)nc23)c1 [Example 87, 3-[7-Cyclopropyl-5-(3,4-dichloro-phenyl)-pyrazolo[1,5-a]pyrimidin-3-ylethynyl]-benzenesulfonamide]		200 to 202 °C
Nc1ncc(C#Cc2cnn3c(C(F)(F)F)cc(-c4ccc(Cl)cc4)nc23)cn1 [Example 317, 5-[5-(4-Chloro-phenyl)-7-trifluoromethyl-pyrazolo[1,5-a]pyrimidin-3-ylethynyl]-pyrimidin-2-ylamine]		303 to 305 °C
FC(F)(F)c1ccc(-c2cc(C(F)(F)F)c3ncc(C#Cc4cccnc4)n3c2)cc1 [Example 190, 3-Pyridin-3-ylethynyl-8-trifluoromethyl-6-(4-trifluoromethyl-phenyl)-imidazo[1,2-a]pyridine]		169 to 170 °C
NS(=O)(=O)c1cc(C#Cc2cnn3c(C4CC4)cc(-c4ccc(Cl)c(Cl)c4)nc23)c(F)cc1F [Example 85, 5-[7-Cyclopropyl-5-(3,4-dichloro-phenyl)-pyrazolo[1,5-a]pyrimidin-3-ylethynyl]-2,4-difluoro-benzenesulfonamide]		280 to 281 °C
NS(=O)(=O)c1cc(C#Cc2cnn3c(C(F)(F)F)cc(-c4ccc(C(F)(F)F)cc4)nc23)ccc1F [Example 50, 2-Fluoro-5-[7-trifluoromethyl-5-(4-trifluoromethyl-phenyl)-pyrazolo[1,5-a]pyrimidin-3-ylethynyl]-benzenesulfonamide]		254 to 255 °C
NS(=O)(=O)c1ccc(C#Cc2cnn3c(C(F)(F)F)cc(-c4cccc(C(F)(F)F)c4)nc23)cc1 [Example 113, 4-[7-Trifluoromethyl-5-(3-trifluoromethyl-phenyl)-pyrazolo[1,5-a]pyrimidin-3-ylethynyl]-benzenesulfonamide]		264 °C
O=S(=O)(Nc1ccncc1)c1ccc(C#Cc2cnn3c(C(F)F)cc(-c4ccc(C(F)(F)F)cc4)nc23)s1 [Example 282, 5-[7-Difluoromethyl-5-(4-trifluoromethyl-phenyl)-pyrazolo[1,5-a]pyrimidin-3-ylethynyl]-thiophene-2-sulfonic acid pyridin-4-ylamide]		215 °C
Cc1cc(-c2cc(C(F)(F)F)n3ncc(C#Cc4ncc(S(=O)(=O)NC(C)(C)CO)s4)c3n2)ccc1Cl [Example 106, 2-[5-(4-Chloro-3-methyl-phenyl)-7-trifluoromethyl-pyrazolo[1,5-a]pyrimidin-3-ylethynyl]-thiazole-5-sulfonic acid (2-hydroxy-1,1-dimethyl-ethyl)-amide]		217 °C
Cc1cc(CNS(=O)(=O)c2ccc(C#Cc3cnn4c(C(F)(F)F)cc(-c5ccc(C(F)(F)F)cc5)nc34)s2)cc(C)n1 [Example 283, 5-[7-Trifluoromethyl-5-(4-trifluoromethyl-phenyl)-pyrazolo[1,5-a]pyrimidin-3-ylethynyl]-thiophene-2-sulfonic acid (2,6-dimethyl-pyridin-4-ylmethyl)-amide]		200 °C
NS(=O)(=O)c1ccc(C#Cc2cnn3c(C(F)(F)F)cc(-c4ccc(C(F)(F)F)cc4)nc23)cc1 [Example 36, 4-[7-Trifluoromethyl-5-(4-trifluoromethyl-phenyl)-pyrazolo[1,5-a]pyrimidin-3-ylethynyl]-benzenesulfonamide]		266 to 267 °C
